Some results are limits rather than exact numbers.

One assay addresses T1, HCV polymerase (Hepatitis C virus genotype 1b, UniProt Q9WMX2).
T1 construct: (His)6 (C); made in house; host or cells: XL-1 cells (E. coli, by own knowledge)
Kind of assay: Polymerase assay of Biological Example 1 (IC50 values of Table 3). The format is biochemical. Conditions: IC50 values of Table 3, polymerase assay of Biological Example 1; read-out: NS5B-enzyme3.

In assay [1] the test system is HCV replicon I389luc-ubi-neo/NS3-3′/ET in ET (Huh-lucubineo-ET) cells. Kind of assay: Replicon assay (Biological Example 2), luciferase readout. The class given is cell-based. Conditions: Hepatitis C virus. In short, it runs like this:
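EC50 values come from Hill fits of % inhibition of replicon-driven firefly luciferase, relative to no-compound wells. Compounds were serially diluted (10 points, 3-fold, 0.1 nM–50 μM final, 0.5% DMSO) onto ET replicon cells and read after 48 h.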

[2] abbreviates: ET cells, luciferase activity 48 hours after compound.

Consider `CC(C)(C)C#Cc1cc(N2C(=O)C3(CCOCC3)OC[C@H]2C2CCCCC2)c(C(=O)O)s1` [Compound 325, 3-((R)-3-Cyclohexyl-5-oxo-1,9-dioxa-4-aza-spiro[5.5]undec-4-yl)-5-(3,3-dimethyl-but-1-ynyl)-thiophene-2-carboxylic acid], for which the IC50 was 6 nM at HCV polymerase and ≤ 100 nM in assay [1] (setting [2]).
For `O=C(O)c1sc(-c2ccccc2)cc1N1C(=O)CN(S(=O)(=O)c2ccc(N3CC[C@@H](O)C3)nc2)CC1C1CCCCC1` (stereo partly drawn) [Compound 123, 3-{2-Cyclohexyl-4-[6-((R)-3-hydroxy-pyrrolidin-1-yl)-pyridine-3-sulfonyl]-6-oxo-piperazin-1-yl}-5-phenyl-thiophene-2-carboxylic acid] the same measures were 2 nM and ≤ 100 nM.
In the same order, the values of `CC(C)(C)C#Cc1cc(N2C(=O)[C@@](C)(CC(O)CO)OC[C@H]2C2CCCCC2)c(C(=O)O)s1` (stereo partly drawn) [Compound 330, 3-[(2R,5R)-5-Cyclohexyl-2-(2,3-dihydroxy-propyl)-2-methyl-3-oxo-morpholin-4-yl]-5-(3,3-dimethyl-but-1-ynyl)-thiophene-2-carboxylic acid] are 3 nM and ≤ 100 nM.
In the same order, the values of `O=C(O)c1sc(-c2ccc(F)cc2)cc1N1C(=O)CN(S(=O)(=O)c2ccc(N3CC[C@H](F)C3)nc2)C[C@H]1C1CCCCC1` [Compound 287, 3-{(R)-2-Cyclohexyl-4-[6-((S)-3-fluoro-pyrrolidin-1-yl)-pyridine-3-sulfonyl]-6-oxo-piperazin-1-yl}-5-(4-fluoro-phenyl)-thiophene-2-carboxylic acid] are 1 nM and ≤ 100 nM.
Regarding `NCCS(=O)(=O)N1CC(=O)N(c2cc(-c3ccccc3)sc2C(=O)O)C(C2CCCCC2)C1` (stereo not shown) [Compound 47, 3-[4-(2-Amino-ethanesulfonyl)-2-cyclohexyl-6-oxo-piperazin-1-yl]-5-phenyl-thiophene-2-carboxylic acid], the IC50 is 88 nM on HCV polymerase; ≥ 5000 nM in assay [1] (setting [2]); 100 to 5000 nM in assay [1] (between 100 nM and 5.0 uM).
`O=C(O)c1sc(-c2ccccc2)cc1N1C(=O)CN(S(=O)(=O)c2ccc(-c3ccn[nH]3)nc2)C[C@H]1C1CCCCC1` [Compound 209, 3-{(R)-2-Cyclohexyl-6-oxo-4-[6-(2H-pyrazol-3-yl)-pyridine-3-sulfonyl]-piperazin-1-yl}-5-phenyl-thiophene-2-carboxylic acid]: the IC50 is 1 nM on HCV polymerase; 100 to 5000 nM in assay [1] (between 100 nM and 5.0 uM).
As for `Cc1nc(C)c(S(=O)(=O)N2CC(=O)N(c3cc(C#CC(C)(C)C)sc3C(=O)O)[C@H](C3CCCCC3)C2)s1` [Compound 244, 3-[(R)-2-Cyclohexyl-4-(2,4-dimethyl-thiazole-5-sulfonyl)-6-oxo-piperazin-1-yl]-5-(3,3-dimethyl-but-1-ynyl)-thiophene-2-carboxylic acid], the IC50 at HCV polymerase is 2 nM; in assay [1] (setting [2]), ≤ 100 nM.
Turning to `N#Cc1cccc(S(=O)(=O)N2CC(=O)N(c3cc(-c4ccccc4)sc3C(=O)O)[C@H](C3CCCCC3)C2)c1` [Compound 97, 3-[(R)-4-(3-Cyano-benzenesulfonyl)-2-cyclohexyl-6-oxo-piperazin-1-yl]-5-phenyl-thiophene-2-carboxylic acid], the IC50 on HCV polymerase is 27 nM; in assay [1] (between 100 nM and 5.0 uM), 100 to 5000 nM.
In the same order, the values of `CC(C)(C)C#Cc1cc(N2C(=O)C(CC(=O)N3CCOCC3)OC[C@H]2C2CCCCC2)c(C(=O)O)s1` (stereo partly drawn) [Compound 294, 3-[(R)-5-Cyclohexyl-2-(2-morpholin-4-yl-2-oxo-ethyl)-3-oxo-morpholin-4-yl]-5-(3,3-dimethyl-but-1-ynyl)-thiophene-2-carboxylic acid] are 7 nM and 100 to 5000 nM.
Regarding `COC[C@@H]1CCCN1c1ccc(S(=O)(=O)N2CC(=O)N(c3cc(-c4ccccc4)sc3C(=O)O)[C@H](C3CCCCC3)C2)cn1` [Compound 171, 3-{(R)-2-Cyclohexyl-4-[6-((S)-2-methoxymethyl-pyrrolidin-1-yl)-pyridine-3-sulfonyl]-6-oxo-piperazin-1-yl}-5-phenyl-thiophene-2-carboxylic acid], the IC50 at HCV polymerase was 2 nM; in assay [1] (setting [2]) it was ≤ 100 nM.
`CC1C(=O)N(c2cc(-c3ccccc3)sc2C(=O)O)C(C2CCCCC2)CN1S(=O)(=O)c1ccc(N2CCOCC2)nc1` (stereo not shown) [Compound 128, 3-[6-Cyclohexyl-3-methyl-4-(6-morpholin-4-yl-pyridine-3-sulfonyl)-2-oxo-piperazin-1-yl]-5-phenyl-thiophene-2-carboxylic acid]: the IC50 on HCV polymerase was 9 nM; in assay [1] (between 100 nM and 5.0 uM), 100 to 5000 nM.
As for `C[C@@H](O)CC[C@]1(C)OC[C@@H](C2CCCCC2)N(c2cc(C#CC(C)(C)C)sc2C(=O)O)C1=O` [Compound 320, 3-[(2S,5R)-5-Cyclohexyl-2-((R)-3-hydroxy-butyl)-2-methyl-3-oxo-morpholin-4-yl]-5-(3,3-dimethyl-but-1-ynyl)-thiophene-2-carboxylic acid], the figures for the IC50 (at HCV polymerase; in assay [1] (setting [2])) were 6 nM and ≤ 100 nM, respectively.
In the same order, the values of `Cn1ccc(S(=O)(=O)N2CC(=O)N(c3cc(-c4ccc(Cl)cc4)sc3C(=O)O)[C@H](C3CCCCC3)C2)n1` [Compound 284, 5-(4-Chloro-phenyl)-3-[(R)-2-cyclohexyl-4-(1-methyl-1H-pyrazole-3-sulfonyl)-6-oxo-piperazin-1-yl]-thiophene-2-carboxylic acid] are 3 nM and ≤ 100 nM.
Regarding `CC(C)(C)C#Cc1cc(N2C(=O)C(CCCO)OC[C@H]2C2CCCCC2)c(C(=O)O)s1` (stereo partly drawn) [Compound 299, 3-[(R)-5-Cyclohexyl-2-(3-hydroxy-propyl)-3-oxo-morpholin-4-yl]-5-(3,3-dimethyl-but-1-ynyl)-thiophene-2-carboxylic acid], the IC50 is 5 nM at HCV polymerase and ≤ 100 nM in assay [1] (setting [2]).
In the same order, the values of `O=C(O)c1sc(-c2ccc(Cl)cc2)cc1N1C(=O)CN(S(=O)(=O)c2ccc(N3CCCOCC3)nc2)C[C@H]1C1CCCCC1` [Compound 200, 5-(4-Chloro-phenyl)-3-[(R)-2-cyclohexyl-4-(6-[1,4]oxazepan-4-yl-pyridine-3-sulfonyl)-6-oxo-piperazin-1-yl]-thiophene-2-carboxylic acid] are 1 nM and ≤ 100 nM.
Turning to `CC(C)(C)C#Cc1cc(N2C(=O)CN(S(=O)(=O)c3ccc4oc(=O)[nH]c4c3)C[C@H]2C2CCCCC2)c(C(=O)O)s1` [Compound 252, 3-[(R)-2-Cyclohexyl-6-oxo-4-(2-oxo-2,3-dihydro-benzooxazole-5-sulfonyl)-piperazin-1-yl]-5-(3,3-dimethyl-but-1-ynyl)-thiophene-2-carboxylic acid], the IC50 at HCV polymerase was 2 nM; in assay [1] (between 100 nM and 5.0 uM), 100 to 5000 nM.
As to `O=C(O)c1sc(-c2ccccc2)cc1N1C(=O)CN(S(=O)(=O)c2ccc(N3CC4CCC(C3)O4)nc2)C[C@H]1C1CCCCC1` [Compound 216, 3-{(R)-2-Cyclohexyl-4-[6-(8-oxa-3-aza-bicyclo[3.2.1]oct-3-yl)-pyridine-3-sulfonyl]-6-oxo-piperazin-1-yl}-5-phenyl-thiophene-2-carboxylic acid], the IC50 is 1 nM on HCV polymerase and ≤ 100 nM in assay [1] (setting [2]).
Consider `CC(C)(C)C#Cc1cc(N2C(=O)CCC2C2CCCCC2)c(C(=O)O)s1` (stereo not shown) [Compound 220, 3-(2-Cyclohexyl-5-oxo-pyrrolidin-1-yl)-5-(3,3-dimethyl-but-1-ynyl)-thiophene-2-carboxylic acid], for which the IC50 at HCV polymerase was 15 nM; in assay [1] (between 100 nM and 5.0 uM), 100 to 5000 nM.
Consider `CC(C)(C)C#Cc1cc(N2C(=O)COC[C@H]2C2CCCCC2)c(C(=O)O)s1` [Compound 236, 3-((R)-3-Cyclohexyl-5-oxo-morpholin-4-yl)-5-(3,3-dimethyl-but-1-ynyl)-thiophene-2-carboxylic acid], for which the IC50 at HCV polymerase was 3 nM; in assay [1] (setting [2]), ≤ 100 nM.
Turning to `O=C(O)c1sc(-c2ccc(F)cc2)cc1N1C(=O)CCCC1C1CCCCC1` (stereo not shown) [Compound 70, 3-(2-Cyclohexyl-6-oxo-piperidin-1-yl)-5-(4-fluoro-phenyl)-thiophene-2-carboxylic acid], the IC50 on HCV polymerase was 67 nM; in assay [1] (between 100 nM and 5.0 uM), 100 to 5000 nM.
For `Cn1cc(-c2ccc(S(=O)(=O)N3CC(=O)N(c4cc(-c5ccccc5)sc4C(=O)O)[C@H](C4CCCCC4)C3)cn2)cn1` [Compound 222, 3-{(R)-2-Cyclohexyl-4-[6-(1-methyl-1H-pyrazol-4-yl)-pyridine-3-sulfonyl]-6-oxo-piperazin-1-yl}-5-phenyl-thiophene-2-carboxylic acid], the figures for the IC50 (at HCV polymerase; in assay [1] (setting [2])) were 2 nM and ≤ 100 nM, respectively.
For `CC1(C)OC[C@@H](C2CCCCC2)N(c2cc(-c3ccc(Cl)cc3)sc2C(=O)O)C1=O` [Compound 315, 5-(4-Chloro-phenyl)-3-((R)-5-cyclohexyl-2,2-dimethyl-3-oxo-morpholin-4-yl)-thiophene-2-carboxylic acid] the same measures were 6 nM and ≤ 100 nM.
In the case of `O=C(O)c1sc(-c2ccccc2)cc1N1C(=O)CCCC1C1CCCCC1` (stereo not shown) [Compound 4, 3-(2-Cyclohexyl-6-oxo-piperidin-1-yl)-5-phenyl-thiophene-2-carboxylic acid], the IC50 on HCV polymerase was 73 nM; in assay [1] (between 100 nM and 5.0 uM), 100 to 5000 nM.
With `CN(C)C1CCCN(c2ccc(S(=O)(=O)N3CC(=O)N(c4cc(-c5ccccc5)sc4C(=O)O)[C@H](C4CCCCC4)C3)cn2)C1` (stereo partly drawn) [Compound 155, 3-[(R)-2-Cyclohexyl-4-(3-dimethylamino-3,4,5,6-tetrahydro-2H-[1,2′]bipyridinyl-5′-sulfonyl)-6-oxo-piperazin-1-yl]-5-phenyl-thiophene-2-carboxylic acid], the IC50 was 3 nM on HCV polymerase and ≤ 100 nM in assay [1] (setting [2]).

The record behind these values is patent US9498483B2, “2,3,5-trisubstituted thiophene compounds and uses thereof” (priority 2010, dated 2016).
